Measured values from patent US20060134719A1, “Novel serine protease” (priority 2002, published 2006).
*: point of attachment. AMC = Cc1cc(=O)oc2cc(N*)ccc12; Boc = CC(C)(C)OC(=O)*; OBn = c1ccc(CO*)cc1

Experiments:
[1] = tested on: ARS-FLAG culture supernatant (recombinant ARS protein, SEQ ID NO:2 1st to 531st); assay: Enzymatic cleavage of MCA-labeled synthetic peptides by ARS-FLAG culture supernatant; type: biochemical, human; conditions: substrate 100 μM in TBS pH 7.5, 37° C.; never obtained with blank vector supernatant
Experimental: (§1) The expression plasmids prepared in Examples 3 to 5 were introduced into HEK293-EBNA cell (Invitrogen) using a transfection reagent (FuGENE™6 transfection reagent; Roche) according to the instruction attached thereto. After the introduction of the plasmids, the culture medium was replaced with a serum-free culture medium within 12 to 16 hours and further incubated for another 48 to 60 hours. The culture supernatant was collected and resulting each liquid culture was centrifuged (3000 rpm, 10 minutes) with a centrifuge (Type 8800; Kubota) to obtain culture supernatants. After removing the culture supernatants, the remaining cells were washed with phosphate buffer (PBS; 10 mM sodium phosphate, pH 7.5) and then recovered by scraping from the culture plate by pipetting with phosphate buffer, and centrifuged with a centrifuge (Type 8800; Kubota) at 3000 rpm for 10 minutes. The resulting precipitate was suspended in phosphate buffer, which was defined as the cell fraction. The culture supernatants obtained by the introduction of pCEP-ARSF-FLAG, pCEP-signal-FLAG-ARS-extracellular and pCEP-signal-FLAG-ARS-SerPD are referred to as ARS-FLAG culture supernatant, signal-FLAG-ARS-extracellular culture supernatant, signal-FLAG-ARS-SerPD culture supernatant and signal-FLAG-ARS-SerPDO culture supernatant, respectively.
(§2) The method for detecting enzymatic cleavage activity using a synthetic peptide labeled with MCA (4-methyl-coumaryl-7-amide) in the C terminus was according to the method reported in an academic paper (Yasuoka, S. et al., Am. J. Respir. Cell Mol Biol., Vol. 16, 300-308, 1997), unless otherwise described. […] Subsequently, the fluorescence of AMC (7-amino-4-methyl-coumarin) released from the synthetic peptide by enzymatic cleavage was measured at a wavelength of 460 nm for measurement, using an excitation wavelength of 390 nm with a fluorescent plate reader (Fluostar, SLT).

[2] = target: T1, signal-FLAG-ARS-extracellular culture supernatant (SEQ ID NO:2 51st to 531st) (Homo sapiens, UniProt Q7Z410, INS90FVSSFQKTELEASCVGCSVLNYRDGNSSVLVHFQ); assay: Enzymatic cleavage of MCA-labeled synthetic peptides by signal-FLAG-ARS-extracellular culture supernatant; type: biochemical; conditions: substrate 100 μM in TBS pH 7.5, 37° C.; never obtained with blank vector supernatant
T1 construct: made in house; host or cells: HEK293-EBNA
T1 sequence (Q7Z410 with tags, fused parts or gaps): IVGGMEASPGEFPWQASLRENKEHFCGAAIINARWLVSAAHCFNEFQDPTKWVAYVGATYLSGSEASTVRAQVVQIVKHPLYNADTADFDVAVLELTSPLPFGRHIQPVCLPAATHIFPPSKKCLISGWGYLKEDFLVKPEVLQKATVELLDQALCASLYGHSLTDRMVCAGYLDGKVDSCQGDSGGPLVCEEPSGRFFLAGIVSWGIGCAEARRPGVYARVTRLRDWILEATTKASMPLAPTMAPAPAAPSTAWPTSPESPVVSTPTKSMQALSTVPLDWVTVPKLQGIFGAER
T1 sequence (Q7Z410 with tags, fused parts or gaps INS90FVSSFQKTELEASCVGCSVLNYRDGNSSVLVHFQ): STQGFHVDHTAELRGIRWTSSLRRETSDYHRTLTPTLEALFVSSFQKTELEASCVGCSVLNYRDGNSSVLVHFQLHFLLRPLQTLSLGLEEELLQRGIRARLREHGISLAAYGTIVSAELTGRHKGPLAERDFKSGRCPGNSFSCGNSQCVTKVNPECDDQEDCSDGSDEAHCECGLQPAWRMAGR
Experimental: as §1, §2

[3] = target: T2, signal-FLAG-ARS-SerPDO culture supernatant (SEQ ID NO:2 237th to 464th) (Homo sapiens, UniProt Q7Z410); assay: Enzymatic cleavage of MCA-labeled synthetic peptides by signal-FLAG-ARS-SerPDO culture supernatant; type: biochemical; conditions: substrate 100 μM in TBS pH 7.5, 37° C.; never obtained with blank vector supernatant
T2 construct: made in house; host or cells: HEK293-EBNA
T2 sequence (Q7Z410 203-430): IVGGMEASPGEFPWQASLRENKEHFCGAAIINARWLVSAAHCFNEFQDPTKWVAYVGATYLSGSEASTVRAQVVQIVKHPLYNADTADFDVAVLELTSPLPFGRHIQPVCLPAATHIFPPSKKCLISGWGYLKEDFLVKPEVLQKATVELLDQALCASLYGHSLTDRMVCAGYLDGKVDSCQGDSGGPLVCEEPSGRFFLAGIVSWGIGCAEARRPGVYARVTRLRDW
Experimental: as §1, §2

[4] = target: T3, enzyme solution treated with trypsin beads (purified signal-FLAG-ARS-extracellular protein) (Homo sapiens, UniProt Q7Z410, INS90FVSSFQKTELEASCVGCSVLNYRDGNSSVLVHFQ); assay: Substrate cleavage activity of purified protein solution treated with trypsin beads; type: biochemical; conditions: substrate 400 μM, ammonium hydrogen carbonate buffer, 37° C. for one hour
T3 construct: FLAG (N); made in house; host or cells: HEK293-EBNA
T3 sequence (Q7Z410 with tags, fused parts or gaps): T1 sequence (Q7Z410 with tags, fused parts or gaps)
T3 sequence (Q7Z410 with tags, fused parts or gaps INS90FVSSFQKTELEASCVGCSVLNYRDGNSSVLVHFQ): T1 sequence (Q7Z410 with tags, fused parts or gaps INS90FVSSFQKTELEASCVGCSVLNYRDGNSSVLVHFQ)
Experimental: By the same method as in Example 9, an enzyme solution treated with trypsin beads was obtained, using the purified protein solution. Then, the substrate cleavage activity of the enzyme solution was measured by the same method as in Example 8. Specifically, synthetic peptide substrates were diluted in ammonium hydrogen carbonate buffer to become a final concentration of 400 μM in a 96-well plate. After the enzyme solution described above was mixed into the resulting diluted substrates, the mixture were incubated at 37° C. for one hour. Subsequently, the fluorescence of AMC released from the synthetic peptide by enzymatic cleavage were measured.

Substance	cleavage activity of synthetic peptide (fluorescence of released AMC) [1]	cleavage activity of synthetic peptide (fluorescence of released AMC) [2]	cleavage activity of synthetic peptide (fluorescence of released AMC) [3]	cleavage of synthetic peptide by enzyme solution treated with trypsin beads (fluorescence of released AMC) [4]
Boc-Phe-Ser-Arg-{AMC}	showed the cleavage activity	showed the cleavage activity	showed the cleavage activity	cleaved
Boc-Glu(OBn)-Ala-Arg-{AMC}	showed the cleavage activity	showed the cleavage activity	showed the cleavage activity	cleaved
Boc-Gln-Arg-Arg-{AMC}	showed the cleavage activity	showed the cleavage activity	showed the cleavage activity	cleaved
